# Experimental data as given in the SangsterLogP compilation.
# Assay: method code SF, from DOI: 10.2478/s11696-010-0084-9
row,Structure (SMILES),logP
1,Cc1cccc(C(=O)NCc2cccnc2)c1O,1.67
2,O=C(NCc1ccccn1)c1cc(F)ccc1O,1.76
3,Cc1ccc(C(=O)NCc2ccccn2)c(O)c1,2.09
4,COc1cccc(C(=O)NCc2cccnc2)c1O,1.06
5,Cc1ccc(C(=O)NCc2cccnc2)c(O)c1,1.67
6,O=C(NCc1cccnc1)c1cc(Br)cc(Br)c1O,2.84
7,O=C(NCc1ccccn1)c1cc(Cl)ccc1O,2.16
8,COc1ccc(C(=O)NCc2cccnc2)c(O)c1,1.06
9,COc1cccc(C(=O)NCc2ccccn2)c1O,1.48
10,O=C(NCc1cccnc1)c1cc(Cl)cc(Cl)c1O,2.3
11,O=C(NCc1ccccn1)c1cc(Br)cc(Br)c1O,3.26
12,O=C(NCc1ccccn1)c1ccc(Cl)cc1O,2.16
13,O=C(NCc1cccnc1)c1ccc(Cl)cc1O,1.74
14,Cc1cccc(C(=O)NCc2ccccn2)c1O,2.09

# Results, then the compound that gave them:
row,logP,Structure (SMILES)
1,2.52,O=C(NCc1ccccc1)c1ccccc1O
2,3.64,O=C(NCc1ccccc1)c1cc(Cl)cc(Cl)c1O
3,3.08,O=C(NCc1ccccc1)c1cc(Cl)ccc1O
4,4.18,O=C(NCc1ccccc1)c1cc(Br)cc(Br)c1O
5,3.53,O=C(NCc1ccccc1)c1cc(Br)ccc1O
6,2.43,O=C(NCc1ccccn1)c1cc(Br)ccc1O
7,2.39,COc1cccc(C(=O)NCc2ccccc2)c1O
8,1.18,O=C(NCc1cccnc1)c1ccccc1O
9,1.74,O=C(NCc1cccnc1)c1cc(Cl)ccc1O
10,3.08,O=C(NCc1ccccc1)c1ccc(Cl)cc1O
11,2.01,O=C(NCc1cccnc1)c1cc(Br)ccc1O
12,1.34,O=C(NCc1cccnc1)c1cc(F)ccc1O
